Measured values reported in ChEMBL document CHEMBL5726597, “TrkA kinase inhibitors, compositions and methods thereof” (2017).

Biological target: High affinity nerve growth factor receptor (Homo sapiens, UniProt P04629)
Assay: Functional Activity Assay: TrkA functional activity was measured using a DiscoverX PathHunter assay. In this assay, U2OS cells express the human TrkA receptor as a fusion with the weakly complementing fragment of B-galactosidase, which DiscoverX calls “Prolink (PK)”; additionally, Shcl is fused with a larger fragment, which is called “Enzyme Acceptor (EA)”. Activation of the TrkA receptor, upon NGF addition, results in the kinase domain being phosphorylated, resulting in subsequent recruitment of Shcl-EA protein. That recruitment results in an active B-galactosidase enzyme that is detected by addition of a chemiluminescent substrate. The human p75NTR protein was also expressed as a co-receptor for NGF.All reagents were purchased from DiscoverX, except for the receptor agonists (NGF, BDNF, NT3) which were purchased from Peprotech. Cells were expanded and frozen into cryovials, and stored in the vapor phase of liquid nitrogen, and thawed immediately before use. Thawed cells were added to a 384-well plate at 7500 cells/well, and allowed to incubate overnight. Compound at various concentrations was added the following morning and allowed to incubate on cells for 1 h. Then, NGF was added at a concentration sufficient to elicit ˜80% of a maximal response and allowed to incubate for 3 h at ambient temperature.

Chain of High affinity nerve growth factor receptor (P04629 whole entry, the tested form may be a part): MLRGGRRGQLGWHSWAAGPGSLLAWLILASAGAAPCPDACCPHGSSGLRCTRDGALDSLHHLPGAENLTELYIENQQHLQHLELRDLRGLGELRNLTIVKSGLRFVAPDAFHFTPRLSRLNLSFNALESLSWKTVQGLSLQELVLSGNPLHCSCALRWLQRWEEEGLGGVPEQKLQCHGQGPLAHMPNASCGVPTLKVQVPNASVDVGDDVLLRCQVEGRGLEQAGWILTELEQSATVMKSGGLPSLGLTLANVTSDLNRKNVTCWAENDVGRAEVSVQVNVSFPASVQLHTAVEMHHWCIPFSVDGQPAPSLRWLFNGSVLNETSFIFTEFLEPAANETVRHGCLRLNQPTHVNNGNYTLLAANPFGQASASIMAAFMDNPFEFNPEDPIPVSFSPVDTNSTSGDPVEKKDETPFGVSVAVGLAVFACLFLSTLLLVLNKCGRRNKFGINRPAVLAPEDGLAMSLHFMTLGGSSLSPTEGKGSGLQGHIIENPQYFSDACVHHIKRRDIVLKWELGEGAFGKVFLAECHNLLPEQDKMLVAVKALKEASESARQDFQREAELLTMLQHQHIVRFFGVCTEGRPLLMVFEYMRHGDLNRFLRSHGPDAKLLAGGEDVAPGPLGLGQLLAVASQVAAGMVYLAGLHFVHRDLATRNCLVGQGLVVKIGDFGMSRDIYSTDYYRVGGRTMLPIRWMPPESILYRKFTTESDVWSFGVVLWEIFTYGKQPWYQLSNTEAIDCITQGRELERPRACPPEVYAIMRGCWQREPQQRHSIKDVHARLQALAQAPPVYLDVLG

With `Cc1ncc(NC(=O)c2cc(-c3ccn(C)n3)c(C(F)(F)F)cc2F)c(-c2ccccc2)n1` the IC50 was 1 nM.
